Measurements published in PubChem BioAssay (NCI).
“And” between values parts separate entries of the source, which are not always exact repeats. Equal entries are not always repeated.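 The compound was tested at five concentrations on cells cultured in 96-well plates, with a 48-hour exposure period. GI50: concentration for 50% inhibition of growth. At the TGI there is no net growth.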

Tests used:
Experiment in all cases: growth of human tumour cells (NCI), 48 h
HOP-62 NSCLC = system: HOP-62 NSCLC
UACC-62 melanoma = system: UACC-62 melanoma
COLO 205 colon = system: COLO 205 colon
SF-539 CNS = system: SF-539 CNS
786-0 renal = system: 786-0 renal
UACC-257 melanoma = system: UACC-257 melanoma
OVCAR-8 ovarian = system: OVCAR-8 ovarian
MCF7 breast = system: MCF7 breast
M14 melanoma = system: M14 melanoma
CAKI-1 renal = system: CAKI-1 renal

SMILES	TGI (HOP-62 NSCLC)	TGI (UACC-62 melanoma)	TGI (COLO 205 colon)	TGI (SF-539 CNS)	TGI (786-0 renal)	TGI (UACC-257 melanoma) [µM]	TGI (OVCAR-8 ovarian) [µM]	TGI (MCF7 breast) [µM]	TGI (M14 melanoma) [µM]	TGI (CAKI-1 renal)	GI50 (HOP-62 NSCLC) [µM]	GI50 (UACC-62 melanoma) [µM]	GI50 (COLO 205 colon) [µM]	GI50 (SF-539 CNS) [µM]	GI50 (786-0 renal) [µM]	GI50 (UACC-257 melanoma) [µM]	GI50 (OVCAR-8 ovarian) [µM]	GI50 (MCF7 breast) [µM]	GI50 (M14 melanoma) [µM]	GI50 (CAKI-1 renal) [µM]
CCc1nc2ccc(N=Nc3c(O)ccc4ccccc34)cc2[nH]1	43.6 µM	35.3 µM	39 µM	35.4 µM	37.7 µM	29.4	21.6	42.2	35.1	40.2 µM	–	–	–	–	–	–	–	–	–	–
Nc1nc(/C=C\c2ccccc2)nc(N2CCN(c3ccccc3)CC2)n1	86.3 µM	91.6 µM	35.8 µM	> 100 µM	34.8 µM	68.5	> 100	84.1	> 100	43.6 µM	23.9	26	16.4	41.1	16.2	29.1	35.4	26.5	30.2	15.6
Cc1cc(-c2cc(O)ccc2Cl)cc2nnc(Nc3ccc(OCCN4CCCC4)cc3)nc12	3.79 µM	3.33 µM	4.29 µM	2.32 µM	0.343 µM	3.91	1.56	0.356	1.19	2.97 µM	1.88	1.7	2.08	1.04	0.186	1.96	0.705	0.179	0.326	1.54
NS(=O)(=O)c1cc(C(=O)O)c(O)c2ccccc12	> 100 µM	> 100 µM	> 100 µM	> 100 µM	> 100 µM	> 100	> 100	> 100	> 100	> 100 µM	–	–	–	–	–	–	–	–	–	–
CC(=O)NNc1nc(C)c(C(/C=C/c2ccccc2O)=N/N=C(N)N)s1	> 100 µM	> 100 µM	> 100 µM	> 100 µM	> 100 µM	> 100	> 100	> 100	> 100	> 100 µM	–	–	–	–	–	–	–	–	–	–
C=CCC(N[C@H](CO)c1ccccc1)c1cn(Cc2ccccc2Cl)c(=O)n(Cc2ccccc2Cl)c1=O (some centres not stated)	29.9 µM	27.1 µM	86.8 µM	32.5 µM	64.1 µM	53.4	> 100	68.7	23.1	32.2 µM	12	7.64	14.7	15	12.7	23.3	15.2	16.4	6.19	4.46
CC(C)COc1nc2c(c(=O)n(C)c(=O)n2C)n1C	> 100 µM	> 100 µM	> 100 µM	> 100 µM	> 100 µM	> 100	> 100	> 100	> 100	> 100 µM	> 100	> 100	> 100	> 100	> 100	> 100	> 100	> 100	> 100	18.2
COC(=O)c1oc2c(C(=O)/C=C/c3ccc(OC)cc3)c(OCCN(C)C)ccc2c1C	38.7 µM	27.1 µM	19.3 µM	24.1 µM	22.3 µM	29.2	21.5	9.89	25.5	20.2 µM	20.5	12.3	4.59	11.3	9.4	14.1	4.96	2.98	10.6	6.95
CCCCCC/C=C\CCCCCCCCCC1=C(CN2CCN(C)CC2)C(=O)C=C(OC)C1=O	30.7 µM	25.5 µM	3.37 µM	40.1 µM	2.9 µM	28.6	17	11.6	7.73	7.03 µM	–	–	–	–	–	–	–	–	–	–
Clc1ccccc1-c1nnc2c(Cc3ccccc3)nc3ccccc3n12	> 100 µM	> 100 µM	> 100 µM	> 100 µM	98.3 µM	> 100	> 100	> 100	> 100	> 100 µM	9.92	6.9	> 29.6	24.2	12.5	33.3	7.21	34	> 60.5	9.59
CC(=O)C1=C(O)C=C2Oc3c(C(=O)/C=C/c4cc(Cl)cc(Cl)c4)c(O)c(C)c(O)c3[C@]2(C)C1=O	1.67 µM	1.62 µM	0.988 µM	2.26 µM	2.32 µM	2.5	2.26	1.72	2.28	4.19 µM	0.48	0.434	0.408	0.552	0.534	0.535	0.496	0.458	0.567	0.502
CCN(CC)CCCC(C)N/C(=C1\C(=O)NC(=O)\C1=C(/NC(C)CCCN(CC)CC)c1cccc(OC)c1)c1cccc(OC)c1 (configuration not stated)	2.27 µM	1.62 µM	1.65 µM	1.51 µM	2.64 µM	1.58	3.09	3.56	1.75	2.52 µM	0.815	0.859	0.728	0.791	0.833	0.842	0.515	1.03	0.932	1.03
CCCCCCCCCC[C@H](O)[C@H](O)CC[C@@H](O)[C@H]1CC[C@@H]([C@H]2CC[C@H](CCCCCCC[C@@H](O)CC3=C[C@H](C)OC3=O)O2)O1	69.8 µM	5.95 µM	4.42 µM and 35.7 µM	40.9 µM	> 100 µM	> 100	–	77.6	58.4	9.67 µM and 89 µM	11.6	–	18	15.5	30.9	9.51	–	19.2	23.1	32.4
COc1ccc(/C=C2/SC(Nc3nc(-c4nc(NC5=NC(=O)/C(=C\c6ccc(OC)cc6)S5)sc4C)c(C)s3)=NC2=O)cc1	4.92 µM	6.62 µM	> 50 µM	3.95 µM	4.18 µM	15.4	16.7	> 30.7	2.36	3.16 µM	0.485	0.32	2.42	1.36	1.07	2.22	1.71	1.59	0.499	0.368
CCCCCCCCCCCCOC1C(CNC(=O)C2OC3OC(C)(C)OC3C2NC(=O)CN2CCN(c3ccc(OC)cc3)CC2)OC2OC(C)(C)OC21 (configuration not stated)	20.5 µM	18.3 µM	4.82 µM	22 µM	24 µM	12.7	12.9	8.29	18.9	24.5 µM	5.07	5.44	2.26	6.09	11.8	3.83	3.91	2.81	4.73	12.1
O=[N+]([O-])c1cc([N+](=O)[O-])c(Nn2c3ccccc3c3ccccc32)c([N+](=O)[O-])c1	6.11 µM and 2.07 µM	5.67 µM and 1.59 µM	–	15.8 µM and 5.1 µM	13.1 µM and 15.9 µM	1.63	–	5.86	–	0.703 µM	0.344	0.338	0.195	0.335	0.324	0.312	0.371	0.292	0.381	0.238
CCN(Cc1cccc(Cl)c1)c1ccc(CO)c(Cl)c1	16.3 µM	1.07 µM	7.53 µM	30.8 µM	20.9 µM	0.404	23.3	11.4	28.6	10.1 µM	2.09	0.116	2.43	15.9	5.96	0.134	10.5	0.329	12.6	0.724
Cn1c2c(c3ccccc31)CCN1C(=O)CCC21 (configuration not stated)	> 10 µM	–	> 10 µM	> 10 µM	> 10 µM	> 10	> 10	> 10	> 10	> 10 µM	–	–	–	–	–	–	–	–	–	–
C=CCC(N[C@@H](CO)c1ccccc1)c1cn(C(=O)OCC)c2ccccc12 (some centres not stated)	45.8 µM	98.4 µM	44.1 µM	37.3 µM	36.7 µM	66	> 100	> 100	34.4	53.5 µM	20.4	30.4	20.1	20.6	18	22.9	31.7	29.4	18.1	13.6
CCOc1ccn(-c2ccc(F)cc2)c(=O)c1C(=O)Nc1ccc(Oc2ccnc(N)c2Cl)c(F)c1	> 100 µM	18.5 µM	5.57 µM	34.1 µM	> 100 µM	43.4	> 100	> 100	16	56.4 µM	13.2	2.83	2.54	7.53	19	5.99	15.2	7.89	3.74	7.57
CCOC(=O)C(C#N)C1=CC(=O)C(=O)c2ccc(O)cc21 (configuration not stated)	> 100 µM	36.9 µM	> 100 µM	> 100 µM	> 100 µM	> 100	> 100	> 100	51.3	> 100 µM	–	–	–	–	–	–	–	–	–	–
Cc1cc(Nc2cc(N3CCN(C)CC3)nc(/C=C/c3ccccc3)n2)n[nH]1	> 3.98 µM	> 3.51 µM	> 2.03 µM	2.05 µM	> 6.25 µM	> 5.32	> 10	> 7.88	> 3.81	> 5.38 µM	0.768	1.07	0.44	0.718	0.789	1.98	1.68	0.235	0.343	0.223
CO[C@H]1CC(O[C@@H]2/C(C)=C/C[C@@H]3C[C@@H](C[C@]4(CC[C@H](C)[C@@H](C5CCCCC5)O4)O3)OC(=O)[C@@H]3C=C(C)/C(=N/O)[C@H]4OC/C(=C\C=C\[C@@H]2C)[C@]43O)O[C@@H](C)C1O (some centres not stated)	1.73 µM	1.54 µM	1.8 µM	1.93 µM	2.62 µM	2.55	2.41	2.46	4.62	3.32 µM	0.887	0.786	0.93	0.948	1.14	0.987	0.962	0.972	1.5	1.14
C/C(=C(\c1ccc(OCCN2CCCCCC2)cc1)c1ccc(OC(=O)c2ccccc2)cc1)c1ccc(Cl)cc1	8.95 µM	11.1 µM	7.76 µM	8.31 µM	7.73 µM	10.4	10.5	5.94	3.33	9.27 µM	4.35	5.1	2.31	3.79	3.58	5.34	5.15	0.348	0.92	3.86
COc1cccc(Nc2nc3ccccc3c3occc23)c1	39 µM	24.6 µM	22 µM	35.1 µM	23.7 µM	26.8	42.7	> 100	28.6	15.6 µM	15	9.37	9.49	17.3	10.7	13.2	15.8	43.7	13.9	4.19
CN1CCN(Cc2ccc(NC(=O)c3cncc(C#Cc4cnc(N)c5cccnc45)c3)cc2C(F)(F)F)CC1	> 19.1 µM	0.956 µM	1.12 µM	1.78 µM	> 50 µM	> 50	> 50	> 50	0.604	> 50 µM	0.498	0.182	0.0956	0.288	1.26	0.273	0.397	0.69	0.143	–
